Test results: ChEMBL document CHEMBL1201862, “PubChem BioAssay data set” (2004)
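Five concentrations, 48 hours, 96-well plates. GI50: concentration for 50% inhibition of growth.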 The source made the active and inactive calls. Rule as the data show it: active = GI50 up to about 1.1 µM and inactive = higher.

How the values were obtained:
Experiment in all cases: inhibition of tumour cell growth, NCI panel, 48 h
M14 = test system: M14
SN12C = test system: SN12C
MDA-MB-435 = test system: MDA-MB-435
SNB-19 = test system: SNB-19
K562 = test system: K562
SF-295 = test system: SF-295
SR = test system: SR
OVCAR-4 = test system: OVCAR-4
BT-549 = test system: BT-549
A498 = test system: A498
CAKI-1 = test system: CAKI-1
KM12 = test system: KM12
NCI-H522 = test system: NCI-H522
786-0 = test system: 786-0
SK-MEL-2 = test system: SK-MEL-2
OVCAR-5 = test system: OVCAR-5
IGROV-1 = test system: IGROV-1
CCRF-CEM = test system: CCRF-CEM

Compound	GI50 (M14)	GI50 (SN12C)	GI50 (MDA-MB-435)	GI50 (SNB-19)	GI50 (K562)	GI50 (SF-295)	GI50 (SR)	GI50 (OVCAR-4)	GI50 (BT-549)	GI50 (A498)	GI50 (CAKI-1)	GI50 (KM12)	GI50 (NCI-H522)	GI50 (786-0)	GI50 (SK-MEL-2)	GI50 (OVCAR-5)	GI50 (IGROV-1)	GI50 (CCRF-CEM)
Sc1ncnc2c1ncn2Cc1ccco1	> 100 µM (inactive)	> 100 µM (inactive)	> 100 µM (inactive)	> 100 µM (inactive)	> 100 µM (inactive)	> 100 µM (inactive)	> 100 µM (inactive)	> 100 µM (inactive)	> 100 µM (inactive)	> 100 µM (inactive)	> 100 µM (inactive)	> 100 µM (inactive)	> 100 µM (inactive)	> 100 µM (inactive)	> 100 µM (inactive)	> 100 µM (inactive)	> 100 µM (inactive)	
OC1(C(O)(c2ccc(-c3ccccc3)cc2)c2ccc(-c3ccccc3)cc2)CCCCC1	> 100 µM (inactive)	> 100 µM (inactive)	> 100 µM (inactive)	> 100 µM (inactive)	> 100 µM (inactive)	> 100 µM (inactive)	28.6 µM (inactive)	> 100 µM (inactive)	> 100 µM (inactive)	> 100 µM (inactive)	> 100 µM (inactive)	> 100 µM (inactive)	> 100 µM (inactive)	> 100 µM (inactive)	> 100 µM (inactive)	> 100 µM (inactive)	> 100 µM (inactive)	
CN(C)c1ccc(/C=C2\Oc3ccccc3C2=O)cc1	> 100 µM (inactive)	> 100 µM (inactive)	56.8 µM (inactive)	> 100 µM (inactive)	21.5 µM (inactive)	> 100 µM (inactive)	31 µM (inactive)	> 100 µM (inactive)	> 100 µM (inactive)		> 100 µM (inactive)	> 100 µM (inactive)	90.4 µM (inactive)	> 100 µM (inactive)			> 100 µM (inactive)	> 100 µM (inactive)
CC(=O)N(C)c1ccc(Nc2ccnc3ccc4nn(C)nc4c23)cc1	31.4 µM (inactive)	26 µM (inactive)	39.3 µM (inactive)	37.3 µM (inactive)		21.8 µM (inactive)	25.6 µM (inactive)	28.4 µM (inactive)	31.8 µM (inactive)		12.2 µM (inactive)	24.4 µM (inactive)	19 µM (inactive)	26.9 µM (inactive)	17.9 µM (inactive)	30.1 µM (inactive)		17.3 µM (inactive)
OC1C2CN3CCN(C2)CC1(c1ccccc1)C3 (stereo not drawn)		> 100 µM (inactive)	> 100 µM (inactive)	> 100 µM (inactive)	> 100 µM (inactive)	> 100 µM (inactive)	> 100 µM (inactive)	> 100 µM (inactive)	> 100 µM (inactive)	> 100 µM (inactive)	> 100 µM (inactive)	> 100 µM (inactive)	> 100 µM (inactive)	> 100 µM (inactive)	> 100 µM (inactive)	> 100 µM (inactive)	> 100 µM (inactive)	
CC(=O)OC1C(O)COC(O[C@H]2CC[C@]34C[C@]35CC[C@]3(C)C([C@@]6(C)CC[C@@H](C(C)(C)O)O6)[C@@H](O)C[C@@]3(C)C5C[C@H](OC3OCC(O)C(O)C3O)[C@H]4C2(C)C)C1OC1OCC(O)C(O)C1O (stereo partly drawn)	> 100 µM (inactive)	> 100 µM (inactive)	> 100 µM (inactive)	> 100 µM (inactive)	> 100 µM (inactive)	> 100 µM (inactive)	> 100 µM (inactive)	> 100 µM (inactive)	> 100 µM (inactive)	> 100 µM (inactive)	> 100 µM (inactive)	> 100 µM (inactive)	> 100 µM (inactive)	> 100 µM (inactive)	> 100 µM (inactive)	> 100 µM (inactive)	> 100 µM (inactive)	
CC(NO)/C(=N/O)c1ccco1 (stereo not drawn)	> 10 µM (inactive)	> 10 µM (inactive)	> 10 µM (inactive)	> 10 µM (inactive)	> 10 µM (inactive)	> 10 µM (inactive)	> 10 µM (inactive)	> 10 µM (inactive)	> 10 µM (inactive)		> 10 µM (inactive)	> 10 µM (inactive)	> 10 µM (inactive)	> 10 µM (inactive)	> 10 µM (inactive)	> 10 µM (inactive)		> 10 µM (inactive)
CCCNC(=O)OCc1c(COC(=O)NCCC)c(-c2ccc(Cl)c(Cl)c2)n2c1CCC2	10.6 µM (inactive)	3.11 µM (inactive)	11.5 µM (inactive)	8.93 µM (inactive)	4.31 µM (inactive)	2.95 µM (inactive)			4.07 µM (inactive)	1.26 µM (inactive)	1.72 µM (inactive)	10.7 µM (inactive)	1.16 µM (inactive)	2.82 µM (inactive)		3.76 µM (inactive)	1.05 µM (active)	1.98 µM (inactive)
